This is an account of results in patent publication US20220381783A1, “BIOMARKER” (Oxford University Innovation Limited, priority 2019, published 2022).

The subject of one data set is HEK293 cells. Description: Puromycin dose required to kill wild-type cells. The data set is classed as cell-based, Human. As for the experimental part: (§1) To generate CRISPR-Cas9 TEX264 knockout cells, two plasmids —a CRISPR/Cas9 KO plasmid containing guide RNA targeting TEX264 (sc-417333), and a homology directed repair plasmid containing a puromycin resistance cassette (sc-417333-HDR)—were purchased from Santa Cruz. 2.5 μg of each plasmid was transfected into early-passage HEK293, HeLa, and U2OS cells using Fugene HD (Promega). After 72 hours, media supplemented with puromycin was added to the cells. The puromycin dose required to kill wild-type cells was determined to be: 1.25 μg/ml for HEK293 cells, 0.6 μg/ml for HeLa cells, and 1 μg/ml for U2OS cells. After 72 hours, the puromycin-containing media was removed and cells were sorted using a cell sorter into single-cell populations on a 96-well plate. TEX264 expression was analysed by immunoblotting. Multiple clones of each cell line showing loss of all detectable TEX264 were selected for subsequent analysis.

The next data set concerns HeLa cells. Briefly: Puromycin dose required to kill wild-type cells. It is filed as cell-based, Human. As for the experimental part:
as §1

In the next data set the test system is U2OS cells. Briefly: Puromycin dose required to kill wild-type cells. The data set is classed as cell-based, Human. As for the experimental part: as §1
The target in another data set is T1, TOP1cc (Homo sapiens, UniProt P11387).
T1 construct: endogenous in cells; host or cells: HEK293
T1 sequence (P11387 2-765 limits assumed): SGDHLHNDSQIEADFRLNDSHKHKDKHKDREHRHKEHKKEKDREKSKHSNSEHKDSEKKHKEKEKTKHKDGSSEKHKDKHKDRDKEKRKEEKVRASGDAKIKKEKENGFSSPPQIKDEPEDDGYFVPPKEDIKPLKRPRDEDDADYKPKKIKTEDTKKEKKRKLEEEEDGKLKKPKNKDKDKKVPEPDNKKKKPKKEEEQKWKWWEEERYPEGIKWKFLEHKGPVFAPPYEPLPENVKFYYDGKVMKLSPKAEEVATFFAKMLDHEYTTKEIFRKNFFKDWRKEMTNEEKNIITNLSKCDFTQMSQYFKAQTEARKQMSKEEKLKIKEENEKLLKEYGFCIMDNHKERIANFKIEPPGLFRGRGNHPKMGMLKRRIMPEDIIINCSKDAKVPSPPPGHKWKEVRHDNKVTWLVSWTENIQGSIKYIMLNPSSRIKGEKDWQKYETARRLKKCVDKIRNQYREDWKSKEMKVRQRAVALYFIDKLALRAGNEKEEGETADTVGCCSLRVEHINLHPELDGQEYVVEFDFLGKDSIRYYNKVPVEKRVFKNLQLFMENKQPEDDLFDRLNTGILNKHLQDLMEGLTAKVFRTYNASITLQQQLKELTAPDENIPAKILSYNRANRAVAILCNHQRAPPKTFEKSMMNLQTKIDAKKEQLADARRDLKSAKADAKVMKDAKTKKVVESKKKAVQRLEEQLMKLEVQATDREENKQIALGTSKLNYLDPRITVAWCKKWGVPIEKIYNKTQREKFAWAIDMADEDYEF
Briefly: RADAR assay of TOP1cc accumulation. The data set is classed as cell-based. The note with it: HEK293 cells, 1 μM CPT for 1 hour, positive control.

Data set [1] has as its target T2, interaction between TEX264 and TOP1 (Homo sapiens, UniProt P11387).
T2 construct: FLAG immunoprecipitates prepared from HEK293 cells transiently expressing TEX264WT-FLAG cDNA or EV; expressed in transfected cells; host or cells: HEK293, transiently transfected with pCDNA3.1 TEX264-FLAG
T2 sequence (P11387 2-765 limits assumed): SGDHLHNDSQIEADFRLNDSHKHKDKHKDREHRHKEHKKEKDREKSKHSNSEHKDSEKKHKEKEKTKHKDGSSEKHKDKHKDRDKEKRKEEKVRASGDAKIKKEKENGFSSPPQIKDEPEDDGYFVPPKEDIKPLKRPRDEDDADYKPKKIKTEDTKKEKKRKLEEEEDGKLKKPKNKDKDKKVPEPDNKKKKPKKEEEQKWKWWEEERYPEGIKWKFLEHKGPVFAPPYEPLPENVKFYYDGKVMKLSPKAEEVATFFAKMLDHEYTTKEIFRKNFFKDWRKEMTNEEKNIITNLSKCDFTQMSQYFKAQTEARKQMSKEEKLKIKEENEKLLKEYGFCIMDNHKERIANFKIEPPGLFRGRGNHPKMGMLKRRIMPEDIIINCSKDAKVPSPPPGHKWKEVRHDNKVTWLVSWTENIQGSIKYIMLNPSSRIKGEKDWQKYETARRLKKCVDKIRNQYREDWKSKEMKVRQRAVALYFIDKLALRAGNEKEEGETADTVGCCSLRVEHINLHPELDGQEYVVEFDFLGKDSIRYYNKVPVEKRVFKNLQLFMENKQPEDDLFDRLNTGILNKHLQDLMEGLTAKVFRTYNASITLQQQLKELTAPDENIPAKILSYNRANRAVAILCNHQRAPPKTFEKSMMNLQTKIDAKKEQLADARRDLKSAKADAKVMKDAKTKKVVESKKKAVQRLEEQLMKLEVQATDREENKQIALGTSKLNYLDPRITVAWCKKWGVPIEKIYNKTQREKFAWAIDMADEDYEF
Briefly: Co-immunoprecipitation of TEX264-FLAG with TOP1. The data set is classed as cell-based. The note with it: HEK293 cells.
Description: FIG. 2D, FLAG immunoprecipitates prepared from HEK293 cells transiently expressing TEX264WT-FLAG cDNA or EV, treated with CPT (25 nM) or DMSO for 1 hour. FIG. 2E, Immunoblots of anti-Strep-tag immunoprecipitates prepared from wild-type (WT) or ΔTEX264 HEK293 cells expressing p97-Strep-Myc.
FIG. 7G, Immunoblot analysis of TEX264-FLAG immunoprecipitates prepared from HEK293 cells treated with the indicated doses of CPT for 1 hour.
(§2) Cells were lysed in IP lysis buffer (50 mM Tris, pH 7.4, 150 mM NaCl, 1 mM EDTA, 0.5% Triton X-100) or IP denaturing buffer (i.e. IP lysis buffer containing 1% SDS) supplemented with protease and phosphatase inhibitors and incubated on ice for 10 min. Denaturing IPs were quenched with Triton X-100 (to a final concentration of 1%). Chromatin was pelleted by centrifugation for 5 min at 1,000×g and then digested with Benzonase at room temperature in Benzonase buffer (2 mM MgCl2, 50 mM Tris, pH 7.4, 150 mM NaCl). Lysates were incubated with anti-FLAG M2 agarose (Sigma-Aldrich), Strep-Tactin Sepharose (IBA), or GFP-trap agarose (Chromotek) for 1-2 h on a rotator at 4° C., washed three times with IP wash buffer (150 mM NaCl, 50 mM Tris-HC1; 0.5 mM EDTA), and resuspended in 2× Laemmli buffer.

The next data set has as its system SUMOylated TOP1. Description: Denaturing immunoprecipitation of YFP-TOP1, SUMO immunoblot. It is filed as cell-based, human. The settings on record: HEK293 cells, short treatment with a low dose (25 nM, 1 hour). Background: A western blot detects proteins with antibodies after separation by electrophoresis.
In data set [2] the test system is metastatic colorectal cancer. The note with it: patients with metastatic colorectal cancer; cited from earlier work.
Data set [3] addresses T3, endogenous p97 of HEK293 cells (human, UniProt P55072 2-806).
T3 construct: Detected in immunoprecipitates by mass spectrometry or immunoblot; also called AAA ATPase p97
Description: anti-Strep-tag immunoprecipitation from HEK293 cells, immunoblot (FIG. 10c). As for the experimental part:
FIG. 10A, Colony forming assay to assess the survival of HeLa cells transfected with the indicated siRNAs following a 24 hour treatment with the indicated doses of CPT. FIG. 10B, Immunoblots to confirm depletion efficacy in A. FIG. 10C, Analysis of anti-Strep-tag immunoprecipitates prepared from HEK293 cells expressing SPRTN-SSH, transfected with the indicated siRNA. FIG. 10D, Total DNA-protein crosslinks (DPCs) isolated by RADAR from HEK293 cells treated with the indicated siRNAs. DPCs were resolved by SDS-PAGE and visualised by silver staining. FIG. 10E, Quantification of FIG. 10D (error bars represent mean ±SD; n=2; **P<0.01; ns, not significant; Student's t-test). FIG. 10F, In vitro TOP1cc repair assay. TOP1ccs were purified by CsCl-gradient centrifugation from HEK293 cells, incubated with the indicated purified proteins (100 nM/reaction), slot-blotted onto a nitrocellulose membrane and probed with a […] -specific antibody.
To explore how TEX264 regulates SPRTN-dependent TOP1cc processing, SPRTN-SSH was immunoprecipitated from wild-type and TEX264-depleted HEK293 cell extracts. […] As p97 exists in hexameric complexes, it can bind multiple cofactors at a time (Buchberger et al., 2015; Hänzelmann et al., 2011). […]

In data set [4] the target is T4, TOP1 cleavage complexes purified from HEK293 cells by CsCl-gradient fractionation.
T4 chain: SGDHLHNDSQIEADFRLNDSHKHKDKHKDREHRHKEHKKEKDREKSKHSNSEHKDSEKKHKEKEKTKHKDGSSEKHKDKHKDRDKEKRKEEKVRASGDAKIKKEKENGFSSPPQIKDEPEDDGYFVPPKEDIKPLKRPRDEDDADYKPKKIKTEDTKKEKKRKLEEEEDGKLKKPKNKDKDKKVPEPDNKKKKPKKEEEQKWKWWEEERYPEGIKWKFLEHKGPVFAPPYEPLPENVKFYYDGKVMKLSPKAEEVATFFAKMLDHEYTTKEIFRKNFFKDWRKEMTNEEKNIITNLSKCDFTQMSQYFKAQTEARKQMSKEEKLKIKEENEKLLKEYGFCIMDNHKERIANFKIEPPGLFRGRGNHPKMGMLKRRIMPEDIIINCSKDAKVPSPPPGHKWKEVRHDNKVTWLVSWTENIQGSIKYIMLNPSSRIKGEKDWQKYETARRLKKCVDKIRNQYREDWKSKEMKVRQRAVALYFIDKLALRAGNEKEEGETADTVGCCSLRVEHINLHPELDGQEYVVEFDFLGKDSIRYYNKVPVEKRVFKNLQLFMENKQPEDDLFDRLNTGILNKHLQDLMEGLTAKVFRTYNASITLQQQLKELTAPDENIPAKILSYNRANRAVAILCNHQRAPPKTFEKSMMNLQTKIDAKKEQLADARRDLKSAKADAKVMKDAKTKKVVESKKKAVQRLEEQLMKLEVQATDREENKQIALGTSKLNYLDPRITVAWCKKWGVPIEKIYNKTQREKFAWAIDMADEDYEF

T3 sequence (P55072 2-806 limits assumed): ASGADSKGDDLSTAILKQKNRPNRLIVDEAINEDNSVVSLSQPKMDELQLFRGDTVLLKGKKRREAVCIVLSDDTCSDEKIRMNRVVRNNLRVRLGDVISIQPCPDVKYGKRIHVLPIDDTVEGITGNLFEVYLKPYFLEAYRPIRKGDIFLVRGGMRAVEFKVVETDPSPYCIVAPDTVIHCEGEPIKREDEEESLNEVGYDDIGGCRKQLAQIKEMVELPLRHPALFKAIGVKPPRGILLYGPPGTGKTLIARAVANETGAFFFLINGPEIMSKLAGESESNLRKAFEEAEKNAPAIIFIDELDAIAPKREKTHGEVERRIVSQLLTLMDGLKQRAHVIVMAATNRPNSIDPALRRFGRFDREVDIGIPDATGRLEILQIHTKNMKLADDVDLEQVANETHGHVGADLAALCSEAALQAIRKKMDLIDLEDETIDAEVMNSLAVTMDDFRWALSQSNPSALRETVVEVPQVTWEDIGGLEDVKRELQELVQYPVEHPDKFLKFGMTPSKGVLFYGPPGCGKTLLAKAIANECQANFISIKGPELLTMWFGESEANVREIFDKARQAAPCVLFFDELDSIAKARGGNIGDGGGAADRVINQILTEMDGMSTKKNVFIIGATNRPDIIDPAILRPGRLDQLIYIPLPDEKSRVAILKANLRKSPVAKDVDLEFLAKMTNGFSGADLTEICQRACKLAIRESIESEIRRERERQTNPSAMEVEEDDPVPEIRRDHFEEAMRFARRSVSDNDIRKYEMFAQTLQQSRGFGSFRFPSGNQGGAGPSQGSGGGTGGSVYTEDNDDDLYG
Description for SUMOylated TOP1: FIG. 9A, Immunoblot analysis of SUMO1 & SUMO2/3 after denaturing immunoprecipitation of YFP-TOP1 from HEK293 cells treated or not with CPT (25 nM) for 1 or 24 hours. […] Asterisks indicate SUMOylated TOP1.
as §2
Description for TOP1cc: Treatment with 1 μM CPT for 1 hour was used as a positive control for TOP1cc induction. Double-stranded (ds)DNA is used as a loading control. […] FIG. 1C, Quantification of Figure 1A (error bars represent mean ±SEM; n=3; ***P<0.001, **P<0.01; Student's t-test).
Cells were grown to ˜70% confluency then lysed in M buffer (MB), containing 6 M guanidine thiocyanate, 10 mM Tris—HCl (pH 6.8), 20 mM EDTA, 4% Triton X-100, 1% N-lauroylsarcosine and 1% dithiothreitol. DNA was precipitated by adding 100% ethanol, then washed three times in wash buffer (20 mM Tris—HC1 pH 7.4, 150 mM NaCl and 50% ethanol), and solubilized in 8 mM NaOH. […] For TOP1ccs, samples were digested with Benzonase for 30 minutes at 37° C. and analysed by slot blot analysis on a Nitrocellulose membrane.
By lysing cells in chaotropic salts (6M guanidium isothiocyanate), detergents (4% Triton X-100 and 1% N-lauroylsarcosine), and a reducing agent (1% DTT), all molecular interactions, other than covalent interactions, are disrupted.

As to `COc1ccc(C[C@H](N)C(=O)N[C@H]2[C@@H](O)[C@H](n3cnc4c(N(C)C)ncnc43)O[C@@H]2CO)cc1` [puromycin], the “puromycin dose required to kill wild-type cells” value was 1.25 µg/mL in the data set with HEK293 cells, 0.6 µg/mL in the data set on HeLa cells and 1 µg/mL in the data set with U2OS cells.
For the molecule `CC[C@@]1(O)C(=O)OCc2c1cc1n(c2=O)Cc2cc3ccccc3nc2-1` [CPT, Camptothecin], the TOP1cc accumulation entry on TOP1cc was “substantial TOP1cc accumulation”. Moreover, the “co-immunoprecipitation of TOP1 with p97 or TEX264” value in data set [1] (1 μM CPT) is “did not co-immunoprecipitate”. In addition, the “interaction between TEX264 and TOP1” value in [1] (CPT 25 nM for 1 hour) is reported as “increased markedly”. For the same molecule, in the data set on SUMOylated TOP1, the “SUMOylated TOP1, particularly SUMO1” value is recorded as “moderate increases”.
On to `O=c1[nH]cc(F)c(=O)[nH]1` [FU, fluorouracil], for which, in data set [2], the patient response rates is given as 10-15%.

B1: SPRTN-SSH expressed in HEK293 cells (enzyme)
chain: MDDDLMLALRLQEEWNLQEAERDHAQESLSLVDASWELVDPTPDLQALFVQFNDQFFWGQLEAVEVKWSVRMTLCAGICSYEGKGGMCSIRLSEPLLKLRPRKDLVETLLHEMIHAYLFVTNNDKDREGHGPEFCKHMHRINSLTGANITVYHTFHDEVDEYRRHWWRCNGPCQHRPPYYGYVKRATNREPSAHDYWWAEHQKTCGGTYIKIKEPENYSKKGKGKAKLGKEPVLAAENKDKPNRGEAQLVIPFSGKGYVLGETSNLPSPGKLITSHAINKTQDLLNQNHSANAVRPNSKIKVKFEQNGSSKNSHLVSPAVSNSHQNVLSNYFPRVSFANQKAFRGVNGSPRISVTVGNIPKNSVSSSSQRRVSSSKISLRNSSKVTESASVMPSQDVSGSEDTFPNKRPRLEDKTVFDNFFIKKEQIKSSGNDPKYSTTTAQNSSSSSSQSKMVNCPVCQNEVLESQINEHLDWCLEGDSIKVKSEESL
notes: also called SPRTN-wt-cSSH; not shown: C-terminal SSH tag (pulled down by anti-Strep-tag)
Turning to B1, the binding result in data set [3] is given as “binds”. Further, in [4], the “in vitro TOP1cc repair assay (slot blot with TOP1cc-specific antibody), SPRTN alone” value is “SPRTN alone could process only a small proportion of TOP1ccs”; the “in vitro TOP1cc repair assay (slot blot with TOP1cc-specific antibody), TOP1ccs pre-incubated with p97 and TEX264” value was “this activity was enhanced when TOP1ccs were pre-incubated with p97 and TEX264 prior to the addition of SPRTN”.
